From ChEMBL document CHEMBL1201862, “PubChem BioAssay data set” (2004)
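Method: 48-hour compound exposure of cells in 96-well plates, five concentrations, linear interpolation of endpoints. The concentration for 50% growth inhibition is given as GI50.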 The source made the active and inactive calls. Cut-off read from the data, not from the text of the source: active = GI50 up to about 1.1 µM and inactive = higher.

Columns and labels:
Assay in all cases: NCI anticancer screen, dose series, 48 h
BT-549 = tested on: BT-549
SNB-78 = tested on: SNB-78
XF498 = tested on: XF498
KM-20L2 = tested on: KM-20L2
DMS-273 = tested on: DMS-273
LXFL 529 = tested on: LXFL 529
HOP-18 = tested on: HOP-18
DLD-1 = tested on: DLD-1
RXF 631 = tested on: RXF 631

| SMILES | GI50 (BT-549) | GI50 (LXFL 529) | GI50 (DLD-1) | other results |
| --- | --- | --- | --- | --- |
| Nc1nc(Cl)c(C=O)c(NCC2(CO)CC(CCc3ccccc3)C2)n1 (stereo not drawn) | 12.1 µM (inactive) |  |  |  |
| CC1=NC(=Cc2cccc(Cl)c2)C(=O)N1n1c(-c2ccccc2)nc2ccccc2c1=O | 34.7 µM (inactive) |  |  |  |
| Nc1ccc(C23CC4CC(C2)CC(c2ccc(N)cc2)(C4)C3)cc1 | 42.9 µM (inactive) |  |  |  |
| O=S(=O)(O)c1ccc(O)c(/N=N/c2c(O)ccc3ccccc23)c1 | > 100 µM (inactive) |  |  |  |
| COc1ccc2c(c1)CCCN1Cc3ccccc3CC21 (stereo not drawn) | > 100 µM (inactive) |  |  |  |
| N#CCCCC[N+]12CN3CN(CN(C3)C1)C2 | > 100 µM (inactive) |  |  |  |
| O=[N+]([O-])c1cccc2c(/N=N/c3ccc4ccccc4c3O)c(O)cc(S(=O)(=O)O)c12 | 74.6 µM (inactive) |  |  |  |
| C[C@]12CC/C(=N\O)C=C1CC[C@@H]1[C@@H]2CC[C@]2(C)C(=N/O)/C(=C/c3ccc([N+](=O)[O-])cc3)C[C@@H]12 | 3.05 µM (inactive) |  |  |  |
| Cc1ccc2nc(NC(=O)C(=O)C(C#N)c3ccc(Cl)cc3)sc2c1 (stereo not drawn) |  | > 50 µM (inactive) |  | GI50 (SNB-78): > 50 µM (inactive); GI50 (XF498): > 50 µM (inactive); GI50 (KM-20L2): > 50 µM (inactive); GI50 (DMS-273): > 50 µM (inactive); GI50 (HOP-18): 0.265 µM (active) |
| Nc1c([N+](=O)[O-])cc2c3c(cccc13)CC2 | 74.6 µM (inactive) |  |  |  |
| Cc1cc(-c2nc3ccccc3s2)ccc1NC(=O)[C@@H](N)CCCCN | 10.1 µM (inactive) |  |  |  |
| O=C(O)CC(Cc1ccccc1Cl)C(=O)O (stereo not drawn) | > 100 µM (inactive) |  |  |  |
| O=C1C2c3[nH]c4ccccc4c3C3CCCC3C2C(=O)N1c1ccccc1 (stereo not drawn) |  | > 100 µM (inactive) | > 100 µM (inactive) | GI50 (SNB-78): > 100 µM (inactive); GI50 (XF498): 12 µM (inactive); GI50 (DMS-273): > 100 µM (inactive) |
| COC1C(OC(=O)/C=C/C=C/C=C/C=C\C(=O)O)CCC2(CO2)C1C1(C)OC1CC=C(C)C (stereo not drawn) | > 100 µM (inactive) | > 100 µM (inactive) | > 100 µM (inactive) | GI50 (XF498): > 100 µM (inactive); GI50 (KM-20L2): > 100 µM (inactive); GI50 (DMS-273): > 100 µM (inactive); GI50 (RXF 631): > 100 µM (inactive) |
| NC(Cc1ccnnc1)C(=O)O (stereo not drawn) | > 100 µM (inactive) |  |  |  |
| COC(=O)[C@@H](NS(=O)(=O)CC12CCC(CC1)C2(C)C)C(C)(C)C | > 100 µM (inactive) |  |  |  |

| SMILES | GI50 (BT-549) | GI50 (LXFL 529) | GI50 (DLD-1) | other results |
| --- | --- | --- | --- | --- |
| O=C(CCc1ccccc1)On1nnc2ccccc2c1=O |  | > 100 µM (inactive) | > 100 µM (inactive) | GI50 (SNB-78): > 100 µM (inactive); GI50 (KM-20L2): > 100 µM (inactive); GI50 (DMS-273): > 100 µM (inactive) |
| CN(C)CC(/C(Cc1ccccc1)=N\NC(=O)c1ccncc1)c1ccccc1 (stereo not drawn) |  | 36.1 µM (inactive) | 49.1 µM (inactive) | GI50 (XF498): 29.4 µM (inactive); GI50 (KM-20L2): 27 µM (inactive); GI50 (RXF 631): 40.7 µM (inactive) |
| C[C@@]1(Cc2ccccc2)C(=O)N2[C@@H](CO)C(c3ccccc3)O[C@]2(C)c2ccccc21 (stereo partly drawn) |  | > 100 µM (inactive) | > 100 µM (inactive) | GI50 (SNB-78): > 100 µM (inactive); GI50 (KM-20L2): > 100 µM (inactive); GI50 (DMS-273): > 100 µM (inactive) |
| C1CN2N3CCCC23C1 (stereo not drawn) |  | > 100 µM (inactive) | > 100 µM (inactive) | GI50 (SNB-78): > 100 µM (inactive); GI50 (XF498): > 100 µM (inactive); GI50 (KM-20L2): > 100 µM (inactive); GI50 (DMS-273): > 100 µM (inactive); GI50 (HOP-18): > 100 µM (inactive) |
| CC1=NC(=O)C(C)(c2ccccc2)N1CCc1ccccc1 (stereo not drawn) | > 100 µM (inactive) |  |  |  |
| O=[PH](O)c1ccccn1 |  | > 100 µM (inactive) | > 100 µM (inactive) | GI50 (SNB-78): > 100 µM (inactive); GI50 (XF498): > 100 µM (inactive); GI50 (KM-20L2): > 100 µM (inactive); GI50 (DMS-273): > 100 µM (inactive) |
| O=C(CC1=Nc2nnc(-c3nnc4n3C(=O)C(CC(=O)C3CC3)=N4)n2C1=O)C1CC1 |  | > 100 µM (inactive) | > 100 µM (inactive) | GI50 (SNB-78): > 100 µM (inactive); GI50 (KM-20L2): > 100 µM (inactive); GI50 (DMS-273): > 100 µM (inactive) |
| COc1ccc(-c2c(C#N)c(O)n(C3OC(CO)C(O)C(O)C3O)c(=S)c2C#N)cc1 (stereo not drawn) | > 100 µM (inactive) |  |  |  |
| COc1cc(NCCC(=O)O)c2ncccc2c1 | > 100 µM (inactive) |  |  |  |
| COc1ccc(OC)c2c(Nc3ccc(S(=O)(=O)O)c4cc(S(=O)(=O)O)cc(S(=O)(=O)O)c34)cc(C)nc12 | > 100 µM (inactive) |  |  |  |
| COc1ccc(C(=O)N2CCN(c3ccc4c(c3)OCC(=O)N4)CC2)cc1OC | > 100 µM (inactive) |  |  |  |
| CCOC(=O)C(NC(=O)c1ccccc1)(Nc1ccc(Cl)cc1C(F)(F)F)C(F)(F)F (stereo not drawn) | 6.37 µM (inactive) |  |  |  |
| O=C1c2ccccc2C(=O)c2c1ccc(O)c2O [ATHRAQUINONES A] |  | 43.2 µM (inactive) | 43.4 µM (inactive) | GI50 (XF498): 39.1 µM (inactive); GI50 (DMS-273): 35.9 µM (inactive) |
| COC(=O)[C@]12CC[C@H]3CC[C@H]([C@H]31)[C@H](c1ccccc1)N2 | 18.4 µM (inactive) |  |  |  |
| CC(C)Cc1ccc(C(C)/C=C2\CCC(CN(C)C)C2=O)cc1 (stereo not drawn) | 17.1 µM (inactive) | 9.35 µM (inactive) | 10.7 µM (inactive) | GI50 (SNB-78): 17.5 µM (inactive); GI50 (XF498): 20 µM (inactive); GI50 (KM-20L2): 24.3 µM (inactive); GI50 (HOP-18): 17.6 µM (inactive) |
| CCOC(=O)N/N=C(/N)c1cccc(Br)c1 | > 100 µM (inactive) |  |  |  |
